Converted amounts (≈) assume the structure as drawn. The source made the active and inactive calls. No cut-off for these calls is given here.
Experiments:
[1] = system: Streptococcus mutans; test: Inhibition of adhesion of Streptococcus mutans UA159 to saliva-coated glass surface at 0.156 to 5120 ug/ml by spectrophotometry; assay type: functional, organism-based
[2] = system: Streptococcus mutans; test: Inhibition of Streptococcus mutans UA159 biofilm formation assessed as biofilm thickness at 20 ug/ml after 24 hr by confocal laser scanning microscopic analysis (reference value: 19.74 +/- 0.5 uM); assay type: functional
[3] = target: T1, Glucosyltransferase-SI (Streptococcus mutans serotype c (strain ATCC 700610 / UA159)) (UniProt P13470); test: Inhibition of Streptococcus mutans UA159 Glucosyltransferase assessed as water-insoluble glucan production using sucrose as substrate at 2.5 ug/ml after 24 hr
T1 sequence (whole entry): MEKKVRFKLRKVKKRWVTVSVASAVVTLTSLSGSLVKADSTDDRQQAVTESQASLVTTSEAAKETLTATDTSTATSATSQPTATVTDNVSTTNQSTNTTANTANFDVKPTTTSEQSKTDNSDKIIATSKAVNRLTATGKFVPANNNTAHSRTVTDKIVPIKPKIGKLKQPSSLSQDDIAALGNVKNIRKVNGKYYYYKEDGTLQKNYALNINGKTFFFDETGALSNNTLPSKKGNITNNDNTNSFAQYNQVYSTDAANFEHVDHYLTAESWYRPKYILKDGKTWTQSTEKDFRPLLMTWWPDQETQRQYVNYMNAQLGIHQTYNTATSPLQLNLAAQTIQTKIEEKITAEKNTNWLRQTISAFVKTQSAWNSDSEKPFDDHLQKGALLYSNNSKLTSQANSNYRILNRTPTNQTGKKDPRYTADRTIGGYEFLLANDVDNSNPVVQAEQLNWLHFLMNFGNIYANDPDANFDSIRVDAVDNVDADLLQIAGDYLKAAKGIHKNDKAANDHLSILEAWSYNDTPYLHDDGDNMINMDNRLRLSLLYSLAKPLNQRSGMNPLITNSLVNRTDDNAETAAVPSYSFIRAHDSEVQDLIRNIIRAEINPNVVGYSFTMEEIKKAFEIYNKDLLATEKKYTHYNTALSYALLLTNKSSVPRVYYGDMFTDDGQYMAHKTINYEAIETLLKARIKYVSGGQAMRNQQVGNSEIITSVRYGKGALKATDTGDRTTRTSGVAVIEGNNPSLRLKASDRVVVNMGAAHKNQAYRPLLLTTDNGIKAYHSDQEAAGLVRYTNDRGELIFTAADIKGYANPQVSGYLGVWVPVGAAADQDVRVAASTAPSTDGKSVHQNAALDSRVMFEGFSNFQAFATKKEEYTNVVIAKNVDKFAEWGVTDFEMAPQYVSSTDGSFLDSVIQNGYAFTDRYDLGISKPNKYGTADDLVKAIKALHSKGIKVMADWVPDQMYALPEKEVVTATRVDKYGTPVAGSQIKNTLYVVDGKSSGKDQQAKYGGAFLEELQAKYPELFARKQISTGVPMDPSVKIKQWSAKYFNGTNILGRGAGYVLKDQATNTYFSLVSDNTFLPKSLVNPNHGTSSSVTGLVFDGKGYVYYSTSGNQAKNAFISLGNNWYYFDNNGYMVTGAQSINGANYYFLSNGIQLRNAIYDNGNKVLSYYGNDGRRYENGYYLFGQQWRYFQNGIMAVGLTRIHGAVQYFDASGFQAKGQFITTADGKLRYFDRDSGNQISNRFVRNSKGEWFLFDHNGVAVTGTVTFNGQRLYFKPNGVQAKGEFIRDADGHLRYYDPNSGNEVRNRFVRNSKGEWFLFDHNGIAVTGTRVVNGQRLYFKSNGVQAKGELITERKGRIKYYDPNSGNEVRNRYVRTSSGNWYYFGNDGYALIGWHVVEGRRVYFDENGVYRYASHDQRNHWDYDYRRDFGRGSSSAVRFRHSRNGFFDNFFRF

[4] = system: Streptococcus mutans; test: Inhibition of Streptococcus mutans UA159 biofilm formation at sub-MIC after 24 hr by crystal violet staining analysis; assay type: functional
[5] = system: Streptococcus mutans; test: Inhibition of Streptococcus mutans UA159 biofilm formation assessed as conversion of carbohydrates to organic acid measured as pH at 80 ug/ml; assay type: functional
[6] = system: Streptococcus mutans; test: Inhibition of Streptococcus mutans UA159 cell surface hydrophobicity at 20 ug/ml by spectrophotometry (reference value: 88.01 +/- 1.94%); assay type: functional
[7] = system: Streptococcus mutans; test: Inhibition of Streptococcus mutans UA159 biofilm formation after 24 hr by crystal violet staining analysis; assay type: functional, organism-based
[8] = system: Streptococcus mutans; test: Inhibition of Streptococcus mutans UA159 biofilm formation after 24 hr at 20 ug/ml by crystal violet staining analysis; assay type: functional; details: UA159, 24 h
[9] = system: Streptococcus mutans; test: Inhibition of Streptococcus mutans UA159 biofilm formation assessed as conversion of carbohydrates to organic acid measured as pH at 0.625 ug/ml; assay type: functional
[10] = system: Streptococcus mutans; test: Inhibition of Streptococcus mutans UA159 biofilm formation assessed as conversion of carbohydrates to organic acid measured as pH at 5 ug/ml; assay type: functional
[11] = system: Streptococcus mutans; test: Inhibition of Streptococcus mutans UA159 biofilm formation assessed as conversion of carbohydrates to organic acid measured as pH at 2.5 ug/ml; assay type: functional
[12] = system: Streptococcus mutans; test: Inhibition of Streptococcus mutans UA159 biofilm formation assessed as conversion of carbohydrates to organic acid measured as pH at 10 ug/ml; assay type: functional
[13] = system: Streptococcus mutans; test: Inhibition of Streptococcus mutans UA159 biofilm formation assessed as conversion of carbohydrates to organic acid measured as pH at 20 ug/ml; assay type: functional
[14] = system: Streptococcus mutans; test: Inhibition of Streptococcus mutans UA159 biofilm formation assessed as conversion of carbohydrates to organic acid measured as pH at 0.312 ug/ml; assay type: functional
[15] = system: Streptococcus mutans; test: Inhibition of Streptococcus mutans UA159 cell surface hydrophobicity at 5 ug/ml by spectrophotometry (reference value: 88.01 +/- 1.94%); assay type: functional
[16] = system: Streptococcus mutans; test: Inhibition of sucrose-dependent adhesion of Streptococcus mutans UA159 to saliva-coated glass surface at 1.25 ug/ml by spectrophotometry; assay type: functional
[17] = system: Streptococcus mutans; test: Inhibition of sucrose-dependent adhesion of Streptococcus mutans UA159 to saliva-coated glass surface at 10 ug/ml by spectrophotometry; assay type: functional
[18] = system: Streptococcus mutans; test: Inhibition of Streptococcus mutans UA159 biofilm formation assessed as inability of cells to aggregrate and form clumps at MIC after 24 hr by confocal laser scanning microscopic analysis; assay type: functional, organism-based
[19] = system: Streptococcus mutans; test: Inhibition of Streptococcus mutans UA159 biofilm formation assessed as conversion of carbohydrates to organic acid measured as pH at 1.25 ug/ml; assay type: functional
[20] = system: Streptococcus mutans; test: Inhibition of sucrose-dependent adhesion of Streptococcus mutans UA159 to saliva-coated glass surface at 80 ug/ml by spectrophotometry; assay type: functional, organism-based
[21] = system: Streptococcus mutans; test: Antimicrobial activity against Streptococcus mutans UA159 after 24 hr by two-fold serial dilution method; assay type: functional; details: UA159, 24 h
[22] = system: Streptococcus mutans; test: Inhibition of Streptococcus mutans UA159 biofilm formation assessed as conversion of carbohydrates to organic acid measured as pH at 40 ug/ml; assay type: functional

inhibition [3]: 50%
MIC [21]: 80 µg/mL (≈ 188 µM)
SMILES: CCCCCCCCCCCCCCCCCCCCCCCCCCCC(=O)O [N-OCTACOSANOIC ACID]
inhibition [1]: Active
biofilm thickness [2]: 12.7 µm
inhibition (INH) [4]: 60%
pH [5]: 7.55
inhibition at 20 µg/mL [6]: 20.1%
inhibition [7]: Dose-dependent effect
inhibition at 20 µg/mL [8]: 50%
pH [9]: 4.94
pH [10]: 6.02
pH [11]: 5.68
pH [12]: 6.48
pH [13]: 6.66
pH [14]: 4.65
inhibition at 5 µg/mL [15]: 48.4%
inhibition at 1.25 µg/mL [16]: 61.3%
inhibition at 10 µg/mL [17]: 50%
inhibition [18]: Active
pH [19]: 5.14
inhibition [20]: Active
pH [22]: 6.98

Reference: ChEMBL document CHEMBL3045716, “Isolation and characterization of n-octacosanoic acid from Viburnum foetens: a novel antibiofilm agent against Streptococcus Mutans” (2012)
